Test results reported in US20250339409A1, “USES OF PAN BET INHIBITORS” (VYNE THERAPEUTICS INC., priority 2021, published 2025).

Test system: 92 target genes related to melanogenesis
Assay: RHE vitiligo model: gene expression analysis (TaqMan low density array, RT-qPCR)
Assay type: cell-based, human
Parameters: key to FC of XPC gene expression / FC of GNAS gene expression / FC of ATP7A gene expression / FC of TYR gene expression / FC of RAB27A gene expression / FC of KITLG gene expression / FC of ADCY2 gene expression: fold change in expression by comparative Ct (ΔΔCt) method
Description: At the end of the treatments, total RNAs is extracted from 3 epidermis per condition (n=3) using the Qiagen RNeasy kit (Qiagen; 74106). Epidermis is rinsed with cold PBS and lysed in the ad hoc buffer provided in the kit. Extraction is performed according to the supplier's recommendations. The collected RNAs is stored at −80° C.
The RNA concentration is determined by spectrophotometric measurement (QIAxpert, Qiagen) and the RNA quality is analyzed by capillarity electrophoresis (Agilent Bioanalyzer 2100-Agilent RNA 6000 Nano Kit, 5067-1511). The integrity of the total RNA is assessed by visualization of intact ribosomal RNA bands. For the total RNA from higher eukaryotes, the size of the ribosomal bands should be 1.9 kb for the 18S-RNA and 4.7 kb for the 28S-RNA. The intensity of the band corresponding to the 28S RNA must be greater than the intensity of the band corresponding to the 18S-RNA (left profile, in image below). Small and diffuse bands representing low molecular weight RNAs (tRNA and 5S ribosomal RNA) may be present. Degradation of the RNA is apparent as a smearing of ribosomal RNA bands and high molecular weight background as shown below (right profile, in image below).
Reverse transcription is performed with the high-capacity RNA-to-cDNA kit (Applied Biosystems; 438706) from total RNA according to the manufacturer's instructions. The cDNAs are then stored at −20° C. until use in polymerase chain reactions.
The microfluidic TaqMan qPCR arrays (or TaqMan low density arrays) were designed by StratiCELL and manufactured on demand by Applied Biosystems. […]
The TaqMan arrays are processed as described by the manufacturer's instructions (Micro Fluidic Card Getting Started Guide, Applied Biosystems). Briefly, cDNAs are mixed with a specific buffer (TaqMan Fast Advanced Master Mix, 4444557, Applied Biosystems) before being injected into the arrays and dispersed into the wells by centrifugation. Arrays are sealed and qPCRs are run using the Quantstudio7 Real-Time PCR System (Applied Biosystems) and its software (QuantStudio real time PCR Software v1.3. software, Applied Biosystems).
Threshold cycles (Ct) are obtained for each gene. Results files are exported from the qPCR device and analyzed using the DataAssist Software (v3.00, Applied Biosystems) designed to perform relative quantification of gene expression using the comparative Ct (ΔΔCt) method, through a combination of statistical analysis.
The data obtained for the conditions treated with the formulations is compared to the untreated condition or to the condition treated with the vehicle. The effects of the cytokine cocktail stimulation are analyzed as well by comparison of the data obtained for the untreated control (unstimulated) to the data obtained for the stimulated untreated control. The Ct values are normalized to the mean Ct of 3 housekeeping genes present on the array. The maximum Ct cut-off value was fixed at 36 cycles meaning that Ct values above 36 are not considered in the analysis. […]

[1] = Stimulated + BETi1 1% vs Stimulated + BETi1 vehicle, results as originally presented (transcription error for some genes)
[2] = Stimulated + BETi1 1% vs Stimulated + BETi1 vehicle, results as originally presented (transcription error for some genes), inconclusive, Ct of some replicates above 36
[3] = Stimulated RHE treated with BETi1 at 0.01% vs BETi1 vehicle
[4] = Stimulated RHE treated with BETi1 at 0.1% vs BETi1 vehicle
[5] = stimulated RHE, vs stimulated + vehicle
[6] = stimulated RHE, vs stimulated + vehicle, listed as BETi1 0.1%
[7] = stimulated RHE, vs stimulated + vehicle, listed as BETi1 1%

Structure (SMILES): Cn1cc(-c2cccc(O)c2Oc2ccccc2)c2cc[nH]c2c1=O [BETi1]
- FC of OCA2 gene expression [1]: 0.3088
- FC of PCNA gene expression [1]: 7.0134
- FC of POMC gene expression [1]: 0.1471
- FC of PTGER3 gene expression [1]: 0.4492
- FC of RAB3A gene expression [1]: 14.5685
- FC of RAB27A gene expression [1]: 0.3039
- FC of RAB32 gene expression [1]: 0.2366
- FC of RAB38 gene expression [1]: 0.3683
- FC of SLC24A5 gene expression [1]: 0.1544
- FC of SNAP25 gene expression [1]: 0.2547
- FC of SOX9 gene expression [1]: 0.1051
- FC of SOX10 gene expression [1]: 0.4094
- FC of STX6 gene expression [1]: 0.4034
- FC of TYR gene expression [1]: 0.4259
- FC of USF1 gene expression [1]: 0.5772
- FC of WNT16 gene expression [1]: 10.0801
- FC of XPC gene expression [1]: 1.8367
- FC of ASIP gene expression [2]: 0.5127
- FC of CALML6 gene expression [2]: 0.497
- FC of CAMK2A gene expression [2]: 0.4753
- FC of GNAO1 gene expression [2]: 0.4753
- FC of PTGER1 gene expression [2]: 0.4753
- FC of AP1S1 gene expression [3]: 1.3312
- FC of ASIP gene expression [3]: 0.6303
- FC of CALML6 gene expression [3]: 0.6303
- FC of CAMK2A gene expression [3]: 0.6303
- FC of GADD45A gene expression [3]: 0.3574
- FC of GNAO1 gene expression [3]: 0.6303
- FC of POMC gene expression [3]: 0.4147
- FC of RAB3A gene expression [3]: 3.5532
- FC of ADCY2 gene expression [4]: 0.1137
- FC of AP1M1 gene expression [4]: 0.6311
- FC of ATP2A2 gene expression [4]: 0.2769
- FC of BAD gene expression [4]: 0.2735
- FC of CALML6 gene expression [4]: 0.5429
- FC of CAMK2A gene expression [4]: 0.5043
- FC of EDN1 gene expression [4]: 0.0413
- FC of EDNRB gene expression [4]: 0.2737
- FC of GADD45A gene expression [4]: 0.1803
- FC of GNAI1 gene expression [4]: 0.5815
- FC of HPS4 gene expression [4]: 0.4224
- FC of IL1A gene expression [4]: 0.0454
- FC of IL1B gene expression [4]: 0.0727
- FC of KITLG gene expression [4]: 1.8415
- FC of MAPK14 gene expression [4]: 0.4724
- FC of MLPH gene expression [4]: 0.355
- FC of MYO5A gene expression [4]: 0.5462
- FC of PCNA gene expression [4]: 3.2615
- FC of POMC gene expression [4]: 0.1665
- FC of PPIA gene expression [4]: 1.6969
- FC of PTGER3 gene expression [4]: 0.4799
- FC of RAB3A gene expression [4]: 10.8195
- FC of RAB32 gene expression [4]: 0.2378
- FC of RAB38 gene expression [4]: 0.5643
- FC of SLC24A5 gene expression [4]: 0.272
- FC of SOX9 gene expression [4]: 0.1155
- FC of SOX10 gene expression [4]: 0.4196
- FC of STX6 gene expression [4]: 0.4214
- FC of WNT16 gene expression [4]: 8.7922
- RQ (fold change) AP1S1 [5]: 1.3312
- RQ (fold change) APAF1 [5]: 1.5797
- RQ (fold change) HSP4 [5]: 0.6711
- RQ (fold change) KITLG [5]: 1.8415
- RQ (fold change) POMC [5]: 0.5586
- RQ (fold change) PPIA [5]: 1.6969
- RQ (fold change) XPC [5]: 1.6569
- RQ (fold change) RAB3A (stimulated RHE, vs stimulated + vehicle, listed as BETi1 0.01%): 3.5532
- RQ (fold change) EDN1 [6]: 0.0413
- RQ (fold change) IL1A [6]: 0.0454
- RQ (fold change) IL1B [6]: 0.0727
- RQ (fold change) PCNA [6]: 3.2615
- RQ (fold change) RAB3A [6]: 10.8195
- RQ (fold change) SOX9 [6]: 0.1155
- RQ (fold change) WNT16 [6]: 8.7922
- RQ (fold change) EDN1 [7]: 0.0395
- RQ (fold change) IL1A [7]: 0.0124
- RQ (fold change) IL1B [7]: 0.0208
- RQ (fold change) PCNA [7]: 7.0134
- RQ (fold change) RAB3A [7]: 14.5685
- RQ (fold change) SOX9 [7]: 0.0882
- RQ (fold change) WNT16 [7]: 10.0801
